Test results: patent publication US11026931B2, “Methods for the administration of certain VMAT2 inhibitors” (Neurocrine Biosciences, Inc., priority 2018, dated 2021)

What was measured:
[1] = molecular target: T1, human VMAT1 transporter (Homo sapiens, UniProt P54219); assay: Uptake in cells expressing VMAT1; assay type: cell-based; settings: for inhibition of uptake through VMAT1: cells expressing VMAT1, test compounds at concentrations up to 10 μM; for effect on the uptake of monoamines through VMAT1: compared to reserpine
T1 construct: expressed in transfected cells
T1 sequence (P54219 1-525): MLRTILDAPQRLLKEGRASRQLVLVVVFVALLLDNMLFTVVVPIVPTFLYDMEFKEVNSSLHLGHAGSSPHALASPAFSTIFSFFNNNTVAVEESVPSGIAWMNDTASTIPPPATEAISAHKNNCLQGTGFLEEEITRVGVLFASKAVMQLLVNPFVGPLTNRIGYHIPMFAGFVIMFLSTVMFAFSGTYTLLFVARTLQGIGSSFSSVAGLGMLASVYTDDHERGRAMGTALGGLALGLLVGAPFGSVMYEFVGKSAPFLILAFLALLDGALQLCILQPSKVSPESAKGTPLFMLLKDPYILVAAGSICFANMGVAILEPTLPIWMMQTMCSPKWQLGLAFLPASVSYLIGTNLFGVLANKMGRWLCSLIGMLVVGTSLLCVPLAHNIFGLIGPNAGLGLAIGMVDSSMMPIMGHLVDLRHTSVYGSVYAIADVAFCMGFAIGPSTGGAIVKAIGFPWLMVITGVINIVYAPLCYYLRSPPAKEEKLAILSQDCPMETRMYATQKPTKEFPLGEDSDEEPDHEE

[2] = tested on: ptosis (adrenergic activation); assay: In vivo surrogate measure: ptosis
[3] = tested on: prolactin release from the pituitary, modulated through the D2 dopamine receptor; assay: In vivo surrogate measure: prolactin release
[4] = Plasma concentrations of circulating metabolites of VBZ; assay type: in vivo; settings: metabolites formed from VBZ
[5] = Analysis of hypersensitivity and dermatological reactions (case reports); assay type: in vivo
Text: A total of 17 cases of hypersensitivity reaction and/or dermatological findings and evidence for possible causal relationship with VBZ have been reported either spontaneously (6) or after solicitation (11). Of these 17 cases, 14 cases had both hypersensitivity reaction with dermatological findings (5 were serious and 9 were non-serious).

[6] = tested on: dopamine, serotonin and adrenergic receptor subtypes; assay: Radioligand binding assays for monoamine receptor subtypes; settings: for interaction with D1 and D2 receptors: radioligand binding assays and broad panel screen
[7] = of the 14 cases with hypersensitivity reaction and dermatological findings

inhibition of uptake through VMAT1 [1]	effect on the uptake of monoamines through VMAT1 [1]	Structure (SMILES)	induction of ptosis [2]	further results
no significant inhibitory activity	no significant effect	COc1cc2c(cc1OC)C1CC(=O)C(CC(C)C)CN1CC2 (racemic) [TBZ, 1,3,4,6,7, 11b-hexahydro-9,1O-dimethoxy-3-(2-methylpropyl)-2H-benzo(a)quinolizin-2-one, reference compound]	induced ptosis in an equivalent manner	increase in serum prolactin levels [3]: increase in serum prolactin levels
no significant inhibitory activity	no significant effect	COc1cc2c(cc1OC)[C@H]1C[C@@H](OC(=O)[C@@H](N)C(C)(C)O)[C@H](CC(C)C)CN1CC2 [NBI-136110]		half-lives of plasma concentration decline [4]: half-lives similar to VBZ
no significant inhibitory activity	no significant effect	COc1cc2c(cc1OC)[C@H]1C[C@@H](OC(=O)[C@@H](N)C(C)C)[C@H](CC(C)C)CN1CC2 [Valbenazine, (S)-2-amino-3-methyl-butyric acid (2R, 3R,11 bR)-3-isobutyl-9,10-dimethoxy-1,3,4,6,7,11b-hexahydro-2H-pyrido[2,1-a]isoquinolin-2-yl ester]	induced ptosis in an equivalent manner	association with hypersensitivity reactions ([5]; case reports received through 10 Oct. 2017): may be associated with hypersensitivity reactions with or without dermatological reactions; non-serious cases [5, 7]: 9 cases; serious cases [5, 7]: 5 cases; cases with both hypersensitivity reaction and dermatological findings ([5]; of the 17 cases): 14 cases
		COc1cc2c(cc1OC)[C@@H]1C[C@@H](O)[C@@H](CC(C)C)CN1CC2 [R,S,S-DHTBZ]		interaction with D1 and D2 receptors [6]: interact with D1 and D2 receptors
		COc1cc2c(cc1OC)[C@@H]1C[C@H](O)[C@@H](CC(C)C)CN1CC2 [S,S,S-DHTBZ]		interaction with D1 and D2 receptors [6]: interact with D1 and D2 receptors

Structure (SMILES)	inhibition of uptake through VMAT1 [1]	effect on the uptake of monoamines through VMAT1 [1]	induction of ptosis [2]	further results
COC(=O)[C@H]1[C@H]2C[C@@H]3c4[nH]c5cc(OC)ccc5c4CCN3C[C@H]2C[C@@H](OC(=O)c2cc(OC)c(OC)c(OC)c2)[C@@H]1OC [reserpine, reference compound]	substantially inhibited uptake through VMAT1			
COc1cc2c(cc1OC)[C@H]1C[C@@H](O)[C@H](CC(C)C)CN1CC2 [R,R,R-DHTBZ, (2R, 3R,11bR)-3-isobutyl-9,10-dimethoxy-1,3,4,6,7,11b-hexahydro-2H-pyrido[2,1-a]isoquinolin-2-ol]	no significant inhibitory activity	no significant effect	induced ptosis in an equivalent manner	half-lives of plasma concentration decline [4]: half-lives similar to VBZ; specificity for the VMAT2 transporter ([6]; versus monoamine receptor subtypes and transporters): high specificity; increase in serum prolactin levels [3]: induced a similar increase in serum prolactin levels as TBZ
